Measured values from PubChem BioAssay (NCI).
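Compound exposure: 48 hours, 5 concentrations, 96-well plates. At the GI50, growth is halved. TGI marks complete inhibition of growth.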

Experiments:
Assay in all cases: inhibition of tumour cell growth, NCI panel, 48 h
OVCAR-8 ovarian = system: OVCAR-8 ovarian
MDA-MB-435 = system: MDA-MB-435
RPMI-8226 leukemia = system: RPMI-8226 leukemia
SR leukemia = system: SR leukemia
DU-145 prostate = system: DU-145 prostate
OVCAR-4 ovarian = system: OVCAR-4 ovarian
IGROV1 ovarian = system: IGROV1 ovarian
RXF 393 renal = system: RXF 393 renal
CCRF-CEM leukemia = system: CCRF-CEM leukemia
SW-620 colon = system: SW-620 colon

Row | Compound | TGI (OVCAR-8 ovarian) [µM] | TGI (MDA-MB-435) [µM] | TGI (RPMI-8226 leukemia) [µM] | TGI (SR leukemia) [µM] | TGI (DU-145 prostate) [µM] | TGI (OVCAR-4 ovarian) [µM] | TGI (IGROV1 ovarian) [µM] | TGI (RXF 393 renal) [µM] | TGI (CCRF-CEM leukemia) [µM] | TGI (SW-620 colon) [µM] | GI50 (OVCAR-8 ovarian) [µM] | GI50 (MDA-MB-435) [µM] | GI50 (RPMI-8226 leukemia) [µM] | GI50 (SR leukemia) [µM] | GI50 (DU-145 prostate) [µM] | GI50 (OVCAR-4 ovarian) [µM] | GI50 (IGROV1 ovarian) [µM] | GI50 (RXF 393 renal) [µM] | GI50 (CCRF-CEM leukemia) [µM] | GI50 (SW-620 colon) [µM]
1 | Cc1c(-c2ccccc2)c(C#N)c2nnn(-c3ccccc3)c(=O)n12 | > 100 | > 100 | > 100 | > 100 | > 100 | > 100 | > 100 | > 100 | > 100 | > 100 | – | – | – | – | – | – | – | – | – | –
2 | Cn1ccnc1CCc1ccc(F)cc1F | > 100 | > 100 | > 100 | > 100 | > 100 | > 100 | > 100 | > 100 | > 100 | > 100 | – | – | – | – | – | – | – | – | – | –
3 | NNC(=O)CC(=O)Nc1ccc(Cl)cc1 | > 100 | > 100 | > 100 | > 100 | > 100 | > 100 | > 100 | > 100 | > 100 | > 100 | – | – | – | – | – | – | – | – | – | –
4 | O=C1COC(c2ccccc2O)=NN1CCCN1CCCC1 | > 100 | > 100 | > 100 | > 100 | > 100 | > 100 | > 100 | > 100 | – | > 100 | – | – | – | – | – | – | – | – | – | –
5 | CCN1CCN(C(=O)[C@]23CC[C@@H](C)[C@H](C)[C@@H]2C2=CC[C@@H]4[C@@]5(C)C/C(=C/c6cccnc6)C(=O)C(C)(C)[C@@H]5CC[C@@]4(C)[C@]2(C)CC3)CC1 | 6.29 | 3.49 | 6.35 | 7.09 | 4.21 | 7.36 | 3.87 | 2.83 | 8.97 | 4.14 | 2.32 | 1.7 | 2.18 | 2.38 | 2.08 | 2.57 | 1.89 | 1.45 | 2.78 | 1.9
6 | CC1CN=C(Nc2cccc(C(F)(F)F)c2)S1 (stereo unspecified) | – | > 100 | > 100 | > 100 | > 100 | – | – | > 100 | > 100 | – | – | – | – | – | – | – | – | – | – | –
7 | COc1ccc2c(c1)OCC1(O)Cc3ccccc3OC21 (stereo unspecified) | > 100 | > 100 | > 100 | > 100 | > 100 | > 100 | > 100 | – | > 100 | > 100 | – | – | – | – | – | – | – | – | – | –
8 | COC(=O)c1c(OC(C)=O)ccc2c1c1c(OC(C)=O)c3ccccc3c(OC(C)=O)c1n2Cc1cc(OC)cc(OC)c1 | > 100 | 78.3 | 20.8 | > 100 | > 100 | > 100 | > 100 | > 100 | > 100 | – | – | – | – | – | – | – | – | – | – | –
9 | Cc1cccc2c1C(=O)C1(Cc3ccccc3C1=O)C2 (stereo unspecified) | > 100 | > 100 | > 100 | > 100 | > 100 | > 100 | > 100 | > 100 | > 100 | > 100 | – | – | – | – | – | – | – | – | – | –
10 | O=C(O)Cc1ccc(Oc2nc3ccccc3nc2-c2cccs2)cc1 | > 100 | > 100 | > 100 | > 100 | > 100 | > 100 | > 100 | 56.5 | > 100 | > 100 | – | – | – | – | – | – | – | – | – | –
11 | COc1c(-c2cc(C)c(Cl)c(=O)[nH]2)c(O)c(OC)c2occc12 | > 100 | > 100 | > 100 | > 100 | > 100 | > 100 | > 100 | > 100 | – | > 100 | – | – | – | – | – | – | – | – | – | –
12 | CSC1=Nc2ccccc2-c2nc(-c3ccccc3)cc(-c3ccccc3)c2C1 | > 100 | > 100 | > 100 | > 100 | > 100 | > 100 | 32.1 | 45 | > 100 | > 100 | – | – | – | – | – | – | – | – | – | –
13 | C[C@]12CC[C@H]3[C@@H](CCC4=CC(=O)C=C[C@@]43O)[C@@H]1CCC2=O | > 100 | > 100 | > 100 | > 100 | > 100 | – | > 100 | > 100 | > 100 | > 100 | – | – | – | – | – | – | – | – | – | –
14 | N/C(=N\N=C\c1ccc2c(c1)OCO2)NO | 40 | > 100 | 56.9 | 31.7 | 99 | > 100 | 88.3 | > 100 | 51.1 | > 100 | – | – | – | – | – | – | – | – | – | –
15 | COc1c2occc2c(OC)c2c(=O)c(S(=O)(=O)NC(=O)Nc3ccc(Cl)cc3)coc12 | > 10 | > 10 | > 10 | > 10 | > 10 | > 10 | > 10 | > 10 | > 10 | > 10 | – | – | – | – | – | – | – | – | – | –
16 | CC(=O)Nc1ccc(S(=O)(=O)Nc2nnc(S(N)(=O)=O)s2)cc1 | – | > 100 | > 100 | > 100 | > 100 | > 100 | – | > 100 | – | > 100 | – | – | – | – | – | – | – | – | – | –
17 | Cc1cc(NS(=O)(=O)c2ccc(NC(=O)c3ccc4nc5ccccc5c(Nc5ccc(S(=O)(=O)N=C(N)N)cc5)c4c3)cc2)no1 | 32.9 | 35.3 | 71.9 | 46.7 | 32.3 | 31.4 | 38.6 | 31.1 | 34.3 | 48.5 | – | – | – | – | – | – | – | – | – | –
18 | CC1(C)C2CCC1(CS(=O)(=O)Nc1ccccc1)C(=O)C2 (stereo unspecified) | > 100 | > 100 | > 100 | > 100 | > 100 | > 100 | > 100 | > 100 | > 100 | > 100 | – | – | – | – | – | – | – | – | – | –
19 | Cc1cc2c(cc1-c1cc3c(cc1C)C(C(C)C)=C(O)C(=O)/C3=C\Nc1nc(-c3ccccc3)cs1)/C(=C/Nc1nc(-c3ccccc3)cs1)C(=O)C(O)=C2C(C)C | 77 | 30.6 | > 100 | > 100 | 55 | 86.7 | 53.4 | 54.5 | 64.4 | 29 | – | – | – | – | – | – | – | – | – | –
20 | COc1cc(Oc2nc3ccccc3nc2C(=O)O)cc(OC)c1OC | > 100 | > 100 | > 100 | > 100 | > 100 | > 100 | > 100 | > 100 | > 100 | > 100 | – | – | – | – | – | – | – | – | – | –
21 | COc1cc(C2c3cc4c(cc3C(O)C3CCC(=O)N23)OCO4)cc(OC)c1OC (stereo unspecified) | > 100 | 18 | > 100 | > 100 | > 100 | – | > 100 | – | > 100 | > 100 | – | – | – | – | – | – | – | – | – | –
